Measurements from patent publication US11572590B2, “Methods for evaluating tumor cell spheroids using 3D microfluidic cell culture device” (Dana-Farber Cancer Institute, Inc., priority 2017, dated 2023).
Read-outs that look alike come from different tables or passages of the source.

Key:
Assay in all cases: SelectScreen Kinase Profiling, single point inhibition and IC50 for off-target kinases
Type in all cases: biochemical
off-target kinases [1] = target: T1, off-target kinases (Homo sapiens, UniProt O95835); settings: LATS1, LanthaScreen Binding
T1 sequence (O95835 1-1130): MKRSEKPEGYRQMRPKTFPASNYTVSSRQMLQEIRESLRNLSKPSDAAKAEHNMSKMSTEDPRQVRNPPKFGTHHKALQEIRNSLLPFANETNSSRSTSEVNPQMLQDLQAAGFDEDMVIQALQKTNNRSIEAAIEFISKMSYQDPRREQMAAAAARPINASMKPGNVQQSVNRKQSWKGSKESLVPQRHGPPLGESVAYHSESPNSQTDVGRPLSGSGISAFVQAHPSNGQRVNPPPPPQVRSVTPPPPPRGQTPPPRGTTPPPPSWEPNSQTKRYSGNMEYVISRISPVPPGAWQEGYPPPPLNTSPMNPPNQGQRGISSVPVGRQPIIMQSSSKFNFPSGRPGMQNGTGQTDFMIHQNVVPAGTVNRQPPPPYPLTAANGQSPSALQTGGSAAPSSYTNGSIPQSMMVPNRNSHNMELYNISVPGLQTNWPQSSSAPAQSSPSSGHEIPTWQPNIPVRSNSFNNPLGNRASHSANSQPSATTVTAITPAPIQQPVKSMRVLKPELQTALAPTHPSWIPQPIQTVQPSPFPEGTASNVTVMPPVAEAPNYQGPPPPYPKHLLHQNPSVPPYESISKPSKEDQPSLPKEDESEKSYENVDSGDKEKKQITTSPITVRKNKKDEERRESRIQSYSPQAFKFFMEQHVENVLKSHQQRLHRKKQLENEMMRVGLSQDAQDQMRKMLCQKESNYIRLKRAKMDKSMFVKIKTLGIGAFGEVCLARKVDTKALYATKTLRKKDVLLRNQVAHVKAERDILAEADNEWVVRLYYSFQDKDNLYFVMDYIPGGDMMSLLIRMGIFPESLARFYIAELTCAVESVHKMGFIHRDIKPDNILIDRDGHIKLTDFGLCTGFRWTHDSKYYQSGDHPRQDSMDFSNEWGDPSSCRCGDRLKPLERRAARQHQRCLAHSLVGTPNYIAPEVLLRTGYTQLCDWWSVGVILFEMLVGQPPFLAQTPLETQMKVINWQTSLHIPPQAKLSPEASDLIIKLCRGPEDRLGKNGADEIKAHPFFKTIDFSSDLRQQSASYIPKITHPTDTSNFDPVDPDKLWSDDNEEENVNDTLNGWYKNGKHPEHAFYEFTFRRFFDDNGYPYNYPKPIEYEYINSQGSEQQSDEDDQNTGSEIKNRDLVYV

off-target kinases [2] = target: off-target kinases (Homo sapiens, UniProt P22607, G697C); settings: FGFR3 G697C (mutant), LanthaScreen Binding
off-target kinases (Homo sapiens, UniProt P22607, G697C), sequence (P22607 23-806 G697C): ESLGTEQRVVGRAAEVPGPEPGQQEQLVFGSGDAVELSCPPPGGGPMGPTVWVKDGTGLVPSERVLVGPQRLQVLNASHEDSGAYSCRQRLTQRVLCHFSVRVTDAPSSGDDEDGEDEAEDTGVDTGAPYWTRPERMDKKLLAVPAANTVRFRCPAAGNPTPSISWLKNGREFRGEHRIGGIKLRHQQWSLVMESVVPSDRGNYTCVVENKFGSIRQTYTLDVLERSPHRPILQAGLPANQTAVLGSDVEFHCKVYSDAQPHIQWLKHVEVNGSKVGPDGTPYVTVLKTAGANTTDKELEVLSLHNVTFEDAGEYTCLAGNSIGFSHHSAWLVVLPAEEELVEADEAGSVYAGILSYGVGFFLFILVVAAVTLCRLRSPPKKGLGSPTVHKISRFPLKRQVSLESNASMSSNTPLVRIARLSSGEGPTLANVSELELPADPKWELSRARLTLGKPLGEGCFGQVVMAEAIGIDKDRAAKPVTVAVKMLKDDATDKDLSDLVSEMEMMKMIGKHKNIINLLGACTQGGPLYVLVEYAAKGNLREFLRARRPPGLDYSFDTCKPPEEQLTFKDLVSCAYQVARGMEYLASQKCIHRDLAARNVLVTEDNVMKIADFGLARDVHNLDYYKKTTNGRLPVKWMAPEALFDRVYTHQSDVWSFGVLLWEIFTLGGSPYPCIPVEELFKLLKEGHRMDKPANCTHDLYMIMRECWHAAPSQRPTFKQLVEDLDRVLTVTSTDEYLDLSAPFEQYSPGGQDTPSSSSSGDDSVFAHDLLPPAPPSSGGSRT

off-target kinases [3] = target: T2, off-target kinases (Homo sapiens, UniProt Q13188); settings: STK3 (MST2), ZLYTE, ATP Km app
T2 sequence (Q13188 1-491): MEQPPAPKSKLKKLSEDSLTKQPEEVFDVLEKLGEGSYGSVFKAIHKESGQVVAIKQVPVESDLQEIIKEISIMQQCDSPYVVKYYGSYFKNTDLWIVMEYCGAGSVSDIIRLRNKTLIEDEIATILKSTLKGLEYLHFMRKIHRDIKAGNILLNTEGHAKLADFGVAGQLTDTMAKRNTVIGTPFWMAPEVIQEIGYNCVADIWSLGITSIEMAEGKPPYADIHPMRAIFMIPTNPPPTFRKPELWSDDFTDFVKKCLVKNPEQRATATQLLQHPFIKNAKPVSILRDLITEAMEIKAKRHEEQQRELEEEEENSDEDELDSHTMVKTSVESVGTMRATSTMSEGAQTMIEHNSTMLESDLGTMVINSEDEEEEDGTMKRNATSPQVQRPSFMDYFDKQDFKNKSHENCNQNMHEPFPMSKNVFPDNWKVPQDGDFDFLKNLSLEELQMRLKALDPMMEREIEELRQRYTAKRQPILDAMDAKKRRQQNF

off-target kinases [4] = target: off-target kinases (Homo sapiens, UniProt Q15349); settings: RPS6KA2 (RSK3), ZLYTE, ATP Km app
off-target kinases (Homo sapiens, UniProt Q15349), sequence (Q15349 whole entry): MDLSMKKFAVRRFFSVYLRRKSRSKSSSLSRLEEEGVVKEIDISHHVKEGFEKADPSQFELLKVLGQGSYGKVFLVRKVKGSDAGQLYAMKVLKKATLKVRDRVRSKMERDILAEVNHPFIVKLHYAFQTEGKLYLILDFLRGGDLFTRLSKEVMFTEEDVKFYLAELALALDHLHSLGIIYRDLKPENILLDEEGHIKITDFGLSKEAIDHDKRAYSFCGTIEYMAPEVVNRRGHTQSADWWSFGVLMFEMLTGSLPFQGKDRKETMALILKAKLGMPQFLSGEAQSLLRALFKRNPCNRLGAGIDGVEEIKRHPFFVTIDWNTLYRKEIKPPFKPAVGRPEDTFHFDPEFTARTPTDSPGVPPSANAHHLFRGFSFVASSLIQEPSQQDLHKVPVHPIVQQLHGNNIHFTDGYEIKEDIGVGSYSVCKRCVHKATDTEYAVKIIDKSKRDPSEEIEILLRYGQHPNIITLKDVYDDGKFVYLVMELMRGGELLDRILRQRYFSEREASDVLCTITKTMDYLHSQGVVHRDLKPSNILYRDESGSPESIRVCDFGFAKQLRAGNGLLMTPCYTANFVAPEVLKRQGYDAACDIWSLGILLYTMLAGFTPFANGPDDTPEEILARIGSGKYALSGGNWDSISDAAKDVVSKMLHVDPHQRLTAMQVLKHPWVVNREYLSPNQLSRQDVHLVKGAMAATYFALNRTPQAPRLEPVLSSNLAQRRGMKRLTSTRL

Work on `N#Cc1cc(-c2ncnc(Nc3ccc(N4CCN(C5COC5)CC4)cc3)n2)ccc1OC1CCOCC1` [Compound 1, 5-(4-((4-(4-(oxetan-3-yl)piperazin-1-yl)phenyl)amino)-1,3,5-triazin-2-yl)-2-((tetrahydro-2H-pyran-4-yl)oxy)benzonitrile] yielded an inhibition (off-target kinases [1]; read-out: % Inhibition 1) of -5%, an inhibition (off-target kinases [1]; read-out: % Inhibition 2) of 1% and an inhibition (off-target kinases [1]; read-out: % Inhibition Avg) of -2%. It also gave an inhibition (off-target kinases [2]; read-out: % Inhibition 1) of 13%, an inhibition (off-target kinases [2]; read-out: % Inhibition 2) of 4% and an inhibition (off-target kinases [2]; read-out: % Inhibition Avg) of 8%. The inhibition (off-target kinases [3]; read-out: % Inhibition 1) was 5%, the inhibition (off-target kinases [3]; read-out: % Inhibition 2) was 6% and the inhibition (off-target kinases [3]; read-out: % Inhibition Avg) was 5%. It also gave an inhibition (off-target kinases [4]; read-out: % Inhibition 1) of 17%, an inhibition (off-target kinases [4]; read-out: % Inhibition 2) of 13% and an inhibition (off-target kinases [4]; read-out: % Inhibition Avg) of 15%.
